In patent US10358434B2, “2-(3-pyridinyl)-1H-benzimidazole derivative compound and medicament containing same” (NIHON MEDI-PHYSICS CO., LTD., priority 2014, dated 2019):
Blank lines part the entries; values can stand above or below the compound they belong to.

Assays:
[1] = tested on: human adrenal gland section expressing aldosterone-producing adenoma; experiment: In vitro autoradiography using human adrenal adenoma; assay type: binding
Summary of the method: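 Frozen 7-μm sections of human adrenal bearing aldosterone-producing adenoma were immersed 10 min in radioligand (5-33 kBq/mL) in PBS with 1% fatty-acid-free BSA, washed, then exposed to imaging plates for 16-20 h. Equal-area ROI PSL in adenoma (B2) versus normal cortex (B1) gave B2/B1, corrected for nuclide half-life, added activity and exposure time.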

[2] = In vivo kinetics experiment (radioactivity distribution); set-up: species or system Wistar male rat
Summary of the method: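 Male Wistar rats (9 weeks) under isoflurane received approximately 1 to 3.7 MBq radiotracer in saline with 1 w/v % ascorbic acid by tail-vein injection. At 10, 30 and 60 min, rats were exsanguinated; blood, organs and remaining body weighed and counted, giving % ID/g and adrenal-to-tissue ratios.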

[3] = Plasma stability evaluation (TLC analysis); assay type: in vitro ADME; conditions: 37° C., 60 minutes, TLC analysis
Summary of the method: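 Radiolabelled compounds were incubated in heparin-treated pooled normal human plasma at 37° C for 60 minutes. After methanol deproteinization and centrifugation, stability was assessed by TLC under the conditions used for each compound's synthesis.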

[4] = 10 min after administration, rat i.v., mean ± SD
[5] = 30 min after administration, rat i.v., mean ± SD
[6] = 60 min after administration, rat i.v., mean ± SD
[7] = rat, caudal vein, 10 min after administration
[8] = rat, caudal vein, 30 min after administration
[9] = rat, caudal vein, 60 min after administration

Compound: COc1cc([123I])cc2c1nc(-c1cncc(Cn3ccnc3)c1)n2C1CC1 [[^123I] 609, 1-Cyclopropyl-2-[5-(imidazol-1-ylmethyl)pyridin-3-yl]-6-[^123I]iodo-4-methoxybenzimidazole]
B2/B1 accumulation ratio ([1]; section of FIG. 17(b)): 0.85 | B2 (PSL value, aldosterone-producing adenoma) ([1]; section of FIG. 17(b), site 71b): 3805 | B1 (PSL value, normal adrenal cortex) ([1]; section of FIG. 17(b), site 72b): 4479 | Adrenal gland/blood ratio of radioactivity accumulation [2, 4]: 70.18 ± 9.10 | Adrenal gland/fat ratio of radioactivity accumulation [2, 4]: 92.34 ± 17.88 | Adrenal gland/kidney ratio of radioactivity accumulation [2, 4]: 7.38 ± 1.46 | Adrenal gland/liver ratio of radioactivity accumulation [2, 4]: 1.55 ± 0.09 | Adrenal gland/muscle ratio of radioactivity accumulation [2, 4]: 46.03 ± 17.74 | Adrenal gland/small intestine ratio of radioactivity accumulation [2, 4]: 5.04 ± 0.97 | Radioactivity distribution Adrenal gland [2, 4]: 8.54 ± 1.17 % ID/g | Radioactivity distribution Bladder (including urine) [2, 4]: 0.17 ± 0.08 % ID/g | Radioactivity distribution Blood [2, 4]: 0.12 ± 0.00 % ID/g | Radioactivity distribution Fat [2, 4]: 0.09 ± 0.01 % ID/g | Radioactivity distribution Femur [2, 4]: 0.37 ± 0.06 % ID/g | Radioactivity distribution Heart [2, 4]: 0.36 ± 0.01 % ID/g | Radioactivity distribution Kidney [2, 4]: 1.17 ± 0.08 % ID/g | Radioactivity distribution Large intestine [2, 4]: 0.16 ± 0.01 % ID/g | Radioactivity distribution Liver [2, 4]: 5.50 ± 0.46 % ID/g | Radioactivity distribution Lung [2, 4]: 0.51 ± 0.04 % ID/g | Radioactivity distribution Muscle (lower limbs) [2, 4]: 0.20 ± 0.06 % ID/g | Radioactivity distribution Remaining whole body [2, 4]: 0.20 ± 0.03 % ID/g | Radioactivity distribution Small intestine [2, 4]: 1.71 ± 0.18 % ID/g | Radioactivity distribution Spleen [2, 4]: 0.82 ± 0.05 % ID/g | Radioactivity distribution Stomach [2, 4]: 0.65 ± 0.25 % ID/g | Radioactivity distribution Testis [2, 4]: 0.05 ± 0.00 % ID/g | Radioactivity distribution Whole brain [2, 4]: 0.02 ± 0.00 % ID/g | Adrenal gland/blood ratio of radioactivity accumulation [2, 5]: 78.36 ± 23.36 | Adrenal gland/fat ratio of radioactivity accumulation [2, 5]: 110.76 ± 35.85 | Adrenal gland/kidney ratio of radioactivity accumulation [2, 5]: 11.13 ± 2.62 | Adrenal gland/liver ratio of radioactivity accumulation [2, 5]: 2.54 ± 0.51 | Adrenal gland/muscle ratio of radioactivity accumulation [2, 5]: 66.27 ± 15.78 | Adrenal gland/small intestine ratio of radioactivity accumulation [2, 5]: 2.54 ± 0.80 | Radioactivity distribution Adrenal gland [2, 5]: 11.21 ± 3.24 % ID/g | Radioactivity distribution Bladder (including urine) [2, 5]: 0.80 ± 0.10 % ID/g | Radioactivity distribution Blood [2, 5]: 0.14 ± 0.01 % ID/g | Radioactivity distribution Fat [2, 5]: 0.10 ± 0.02 % ID/g | Radioactivity distribution Femur [2, 5]: 0.29 ± 0.04 % ID/g | Radioactivity distribution Heart [2, 5]: 0.36 ± 0.02 % ID/g | Radioactivity distribution Kidney [2, 5]: 1.00 ± 0.07 % ID/g | Radioactivity distribution Large intestine [2, 5]: 0.18 ± 0.03 % ID/g | Radioactivity distribution Liver [2, 5]: 4.36 ± 0.46 % ID/g | Radioactivity distribution Lung [2, 5]: 0.42 ± 0.05 % ID/g | Radioactivity distribution Muscle (lower limbs) [2, 5]: 0.17 ± 0.03 % ID/g | Radioactivity distribution Remaining whole body [2, 5]: 0.14 ± 0.01 % ID/g | Radioactivity distribution Small intestine [2, 5]: 4.44 ± 0.63 % ID/g | Radioactivity distribution Spleen [2, 5]: 0.43 ± 0.03 % ID/g | Radioactivity distribution Stomach [2, 5]: 1.27 ± 0.17 % ID/g | Radioactivity distribution Testis [2, 5]: 0.07 ± 0.01 % ID/g | Radioactivity distribution Whole brain [2, 5]: 0.02 ± 0.00 % ID/g | Adrenal gland/blood ratio of radioactivity accumulation [2, 6]: 87.48 ± 12.64 | Adrenal gland/fat ratio of radioactivity accumulation [2, 6]: 147.76 ± 20.75 | Adrenal gland/kidney ratio of radioactivity accumulation [2, 6]: 13.00 ± 2.52 | Adrenal gland/liver ratio of radioactivity accumulation [2, 6]: 3.99 ± 0.57 | Adrenal gland/muscle ratio of radioactivity accumulation [2, 6]: 103.59 ± 13.53 | Adrenal gland/small intestine ratio of radioactivity accumulation [2, 6]: 1.53 ± 0.14 | Radioactivity distribution Adrenal gland [2, 6]: 11.04 ± 1.72 % ID/g | Radioactivity distribution Bladder (including urine) [2, 6]: 2.03 ± 0.70 % ID/g | Radioactivity distribution Blood [2, 6]: 0.13 ± 0.00 % ID/g | Radioactivity distribution Fat [2, 6]: 0.07 ± 0.01 % ID/g | Radioactivity distribution Femur [2, 6]: 0.33 ± 0.03 % ID/g | Radioactivity distribution Heart [2, 6]: 0.33 ± 0.02 % ID/g | Radioactivity distribution Kidney [2, 6]: 0.85 ± 0.03 % ID/g | Radioactivity distribution Large intestine [2, 6]: 0.63 ± 0.43 % ID/g | Radioactivity distribution Liver [2, 6]: 2.77 ± 0.15 % ID/g | Radioactivity distribution Lung [2, 6]: 0.38 ± 0.02 % ID/g | Radioactivity distribution Muscle (lower limbs) [2, 6]: 0.11 ± 0.00 % ID/g | Radioactivity distribution Remaining whole body [2, 6]: 0.10 ± 0.00 % ID/g | Radioactivity distribution Small intestine [2, 6]: 7.17 ± 0.45 % ID/g | Radioactivity distribution Spleen [2, 6]: 0.30 ± 0.01 % ID/g | Radioactivity distribution Stomach [2, 6]: 1.47 ± 0.33 % ID/g | Radioactivity distribution Testis [2, 6]: 0.07 ± 0.01 % ID/g | Radioactivity distribution Whole brain [2, 6]: 0.01 ± 0.00 % ID/g | Radiochemical purity after incubation in human plasma [3]: 86%

Adrenal gland/blood ratio of radioactivity accumulation [2, 7]: 28.34 ± 5.95 | Adrenal gland/fat ratio of radioactivity accumulation [2, 7]: 89.23 ± 14.22 | Adrenal gland/kidney ratio of radioactivity accumulation [2, 7]: 5.85 ± 1.07 | Adrenal gland/liver ratio of radioactivity accumulation [2, 7]: 3.02 ± 0.41 | Adrenal gland/muscle ratio of radioactivity accumulation [2, 7]: 54.21 ± 12.64 | Adrenal gland/small intestine ratio of radioactivity accumulation [2, 7]: 6.95 ± 1.48 | Radioactivity distribution Adrenal gland [2, 7]: 9.09 ± 2.28 % ID/g | Radioactivity distribution Bladder (including urine) [2, 7]: 0.32 ± 0.15 % ID/g | Radioactivity distribution Blood [2, 7]: 0.32 ± 0.01 % ID/g | Radioactivity distribution Fat [2, 7]: 0.10 ± 0.01 % ID/g | Radioactivity distribution Heart [2, 7]: 0.63 ± 0.07 % ID/g | Radioactivity distribution Kidney [2, 7]: 1.54 ± 0.11 % ID/g | Radioactivity distribution Large intestine [2, 7]: 0.19 ± 0.00 % ID/g | Radioactivity distribution Liver [2, 7]: 2.98 ± 0.35 % ID/g | Radioactivity distribution Lung [2, 7]: 1.06 ± 0.09 % ID/g | Radioactivity distribution Muscle (lower limbs) [2, 7]: 0.17 ± 0.00 % ID/g | Radioactivity distribution Remaining whole body [2, 7]: 0.27 ± 0.01 % ID/g | Radioactivity distribution Small intestine [2, 7]: 1.30 ± 0.05 % ID/g | Radioactivity distribution Spleen [2, 7]: 5.26 ± 1.78 % ID/g | Radioactivity distribution Stomach [2, 7]: 1.03 ± 0.28 % ID/g | Radioactivity distribution Testis [2, 7]: 0.07 ± 0.02 % ID/g | Radioactivity distribution Thyroid gland [2, 7]: 3.54 ± 0.37 % ID/g | Radioactivity distribution Whole brain [2, 7]: 0.02 ± 0.00 % ID/g | Adrenal gland/blood ratio of radioactivity accumulation [2, 8]: 40.26 ± 12.64 | Adrenal gland/fat ratio of radioactivity accumulation [2, 8]: 147.73 ± 74.06 | Adrenal gland/kidney ratio of radioactivity accumulation [2, 8]: 17.90 ± 4.66 | Adrenal gland/liver ratio of radioactivity accumulation [2, 8]: 13.82 ± 3.67 | Adrenal gland/muscle ratio of radioactivity accumulation [2, 8]: 110.91 ± 25.83 | Adrenal gland/small intestine ratio of radioactivity accumulation [2, 8]: 9.24 ± 1.46 | Radioactivity distribution Adrenal gland [2, 8]: 16.93 ± 3.32 % ID/g | Radioactivity distribution Bladder (including urine) [2, 8]: 1.35 ± 0.14 % ID/g | Radioactivity distribution Blood [2, 8]: 0.43 ± 0.05 % ID/g | Radioactivity distribution Fat [2, 8]: 0.12 ± 0.04 % ID/g | Radioactivity distribution Heart [2, 8]: 0.49 ± 0.01 % ID/g | Radioactivity distribution Kidney [2, 8]: 0.95 ± 0.06 % ID/g | Radioactivity distribution Large intestine [2, 8]: 0.19 ± 0.00 % ID/g | Radioactivity distribution Liver [2, 8]: 1.24 ± 0.09 % ID/g | Radioactivity distribution Lung [2, 8]: 0.76 ± 0.04 % ID/g | Radioactivity distribution Muscle (lower limbs) [2, 8]: 0.15 ± 0.01 % ID/g | Radioactivity distribution Remaining whole body [2, 8]: 0.31 ± 0.01 % ID/g | Radioactivity distribution Small intestine [2, 8]: 1.83 ± 0.07 % ID/g | Radioactivity distribution Spleen [2, 8]: 5.44 ± 1.82 % ID/g | Radioactivity distribution Stomach [2, 8]: 2.24 ± 0.39 % ID/g | Radioactivity distribution Testis [2, 8]: 0.12 ± 0.00 % ID/g | Radioactivity distribution Thyroid gland [2, 8]: 9.97 ± 0.74 % ID/g | Radioactivity distribution Whole brain [2, 8]: 0.02 ± 0.00 % ID/g | Adrenal gland/blood ratio of radioactivity accumulation [2, 9]: 29.41 ± 3.13 | Adrenal gland/fat ratio of radioactivity accumulation [2, 9]: 105.17 ± 28.98 | Adrenal gland/kidney ratio of radioactivity accumulation [2, 9]: 18.87 ± 3.12 | Adrenal gland/liver ratio of radioactivity accumulation [2, 9]: 16.66 ± 3.13 | Adrenal gland/muscle ratio of radioactivity accumulation [2, 9]: 95.38 ± 22.07 | Adrenal gland/small intestine ratio of radioactivity accumulation [2, 9]: 6.64 ± 2.31 | Radioactivity distribution Adrenal gland [2, 9]: 11.65 ± 1.54 % ID/g | Radioactivity distribution Bladder (including urine) [2, 9]: 1.27 ± 0.07 % ID/g | Radioactivity distribution Blood [2, 9]: 0.40 ± 0.01 % ID/g | Radioactivity distribution Fat [2, 9]: 0.11 ± 0.02 % ID/g | Radioactivity distribution Heart [2, 9]: 0.35 ± 0.03 % ID/g | Radioactivity distribution Kidney [2, 9]: 0.62 ± 0.08 % ID/g | Radioactivity distribution Large intestine [2, 9]: 0.43 ± 0.19 % ID/g | Radioactivity distribution Liver [2, 9]: 0.70 ± 0.05 % ID/g | Radioactivity distribution Lung [2, 9]: 0.60 ± 0.03 % ID/g | Radioactivity distribution Muscle (lower limbs) [2, 9]: 0.12 ± 0.02 % ID/g | Radioactivity distribution Remaining whole body [2, 9]: 0.33 ± 0.02 % ID/g | Radioactivity distribution Small intestine [2, 9]: 1.85 ± 0.44 % ID/g | Radioactivity distribution Spleen [2, 9]: 5.27 ± 0.89 % ID/g | Radioactivity distribution Stomach [2, 9]: 4.35 ± 0.25 % ID/g | Radioactivity distribution Testis [2, 9]: 0.15 ± 0.01 % ID/g | Radioactivity distribution Thyroid gland [2, 9]: 19.76 ± 1.03 % ID/g | Radioactivity distribution Whole brain [2, 9]: 0.02 ± 0.00 % ID/g | Radiochemical purity after incubation in human plasma [3]: 82%
Compound: [123I]c1ccc2nc(-c3cncc(Cn4ccnc4)c3)n(C3CC3)c2c1 [[^123I] 602, 1-Cyclopropyl-2-[3-(1H-imidazol-1-ylmethyl)pyridin-5-yl]-6-[^123I]iodo-1H-benzimidazole]
B2/B1 accumulation ratio ([1]; section of FIG. 17(a)): 2.06 | B2 (PSL value, aldosterone-producing adenoma) ([1]; section of FIG. 17(a), site 71a): 6142 | B1 (PSL value, normal adrenal cortex) ([1]; section of FIG. 17(a), site 72a): 2981
